Source: ChEMBL document CHEMBL3988442, “University of Dundee, Small-Polar-MMV Screening Library” (2021)

How the values were obtained:
[1] = target: Lysine--tRNA ligase (Plasmodium falciparum (isolate 3D7), UniProt Q8IDJ8); assay: Pf-KRS-1 (Lysyl-RNA Synthetase-1, KRS-1, cytosolic KRS) from Plasmodium falciparum. Inhibitor assay, 384 well plate, luminescence read.; format: functional
[2] = target: ClpP1P2 (Mycobacterium tuberculosis (strain ATCC 25618 / H37Rv), UniProt P9WPC3+P9WPC5); assay: in vitro assay to detect presence of AMC directly proportional to the activity of ClpP1P2. GHDDI collaboration.; format: functional
[3] = microbe, parasite or virus in culture; conditions: Mycobacterium tuberculosis, 96 h, read-out: pIC50 (converted)
[4] = microbe, parasite or virus in culture; conditions: Mycobacterium tuberculosis, 72 h, read-out: pIC50 (converted)
[5] = tested on: Plasmodium falciparum; assay: Calibr Malaria Delayed Death Assay SOP; format: functional, organism-based
[6] = target: Tryptophan--tRNA ligase (Mycobacterium tuberculosis (strain ATCC 25618 / H37Rv), UniProt P9WFT3); assay: Biochemical assay for Mt-TrpRS; format: functional
[7] = tested on: Schistosoma mansoni; assay: High throughput screening of compounds against Schistosoma mansoni motility; format: functional; design: dose or concentration left out as unconfirmed

ClpP1P2, sequence (P9WPC5 whole entry): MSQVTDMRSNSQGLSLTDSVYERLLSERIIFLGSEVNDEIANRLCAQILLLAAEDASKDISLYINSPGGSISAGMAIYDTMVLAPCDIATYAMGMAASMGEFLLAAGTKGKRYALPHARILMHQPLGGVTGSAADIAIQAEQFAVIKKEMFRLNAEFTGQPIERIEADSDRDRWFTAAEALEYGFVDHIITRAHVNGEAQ
ClpP1P2, sequence (P9WPC3 whole entry): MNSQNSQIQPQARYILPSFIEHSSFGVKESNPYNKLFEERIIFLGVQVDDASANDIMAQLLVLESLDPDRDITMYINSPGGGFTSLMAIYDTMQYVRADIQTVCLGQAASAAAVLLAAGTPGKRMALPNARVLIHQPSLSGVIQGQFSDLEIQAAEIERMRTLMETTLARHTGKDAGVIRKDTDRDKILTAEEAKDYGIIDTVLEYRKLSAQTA
Lysine--tRNA ligase, sequence (Q8IDJ8 whole entry): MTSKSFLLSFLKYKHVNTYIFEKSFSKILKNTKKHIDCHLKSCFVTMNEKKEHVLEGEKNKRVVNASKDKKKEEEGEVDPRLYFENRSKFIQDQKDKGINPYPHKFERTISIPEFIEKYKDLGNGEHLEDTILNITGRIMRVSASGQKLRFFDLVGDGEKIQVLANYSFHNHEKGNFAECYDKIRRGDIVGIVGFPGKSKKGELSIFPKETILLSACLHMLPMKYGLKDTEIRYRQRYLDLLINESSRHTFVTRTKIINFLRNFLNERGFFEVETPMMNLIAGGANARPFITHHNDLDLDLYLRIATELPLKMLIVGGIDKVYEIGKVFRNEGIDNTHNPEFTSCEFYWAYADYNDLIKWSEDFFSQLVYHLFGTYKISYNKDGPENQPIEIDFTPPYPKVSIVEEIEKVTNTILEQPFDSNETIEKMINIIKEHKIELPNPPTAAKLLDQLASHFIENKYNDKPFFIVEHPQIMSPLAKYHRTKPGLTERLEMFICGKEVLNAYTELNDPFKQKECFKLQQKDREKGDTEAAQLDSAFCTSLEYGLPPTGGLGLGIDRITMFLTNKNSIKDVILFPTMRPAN
Tryptophan--tRNA ligase, sequence (P9WFT3 whole entry): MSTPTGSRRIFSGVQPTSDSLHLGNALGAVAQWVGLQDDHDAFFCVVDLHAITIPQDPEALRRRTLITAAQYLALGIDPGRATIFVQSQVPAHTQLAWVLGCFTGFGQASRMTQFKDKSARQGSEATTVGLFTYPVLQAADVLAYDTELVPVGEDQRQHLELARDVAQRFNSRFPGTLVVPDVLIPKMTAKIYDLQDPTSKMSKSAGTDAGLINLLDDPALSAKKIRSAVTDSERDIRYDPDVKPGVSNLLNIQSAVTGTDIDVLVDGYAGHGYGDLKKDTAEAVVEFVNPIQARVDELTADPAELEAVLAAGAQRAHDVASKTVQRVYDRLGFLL

SMILES	IC50 [1] [µM]	also measured
CC(O)CCn1ccc2[nH]c(=O)c(C#N)cc2c1=O (stereo not given)	> 50.1	IC50 [2]: > 100 µM
Cc1nc(CN2CCCC(CCc3cccc(C(F)(F)F)c3)C2)co1 (stereo not given)	> 50.1	IC50 [3]: 41.8 µM; IC50 [4]: 33.3 µM
Fc1ccc(C2(CNC3=NCCN3)CCCC2)cc1.I	> 50.1	pIC50 [5]: 6.191; IC50 ([5]; Plasmodium falciparum): 0.629 µM
N#Cc1cc2c(=O)n(CC(O)C(F)(F)F)ccc2[nH]c1=O (stereo not given)	> 50.1	IC50 [2]: > 100 µM
O=C(Cc1ccc(F)cc1)N1CCCC(c2n[nH]c3nccnc23)C1 (stereo not given)	> 50.1	IC50 [6]: > 195 µM
CC(C)CN1C[C@H]2CCN(C(=O)C3CCCO3)CC[C@H]2S1(=O)=O (stereo not given in full)	> 50.1	IC50 [3]: > 50.1 µM; IC50 [4]: > 50.1 µM
COCCN(Cc1ccc(F)cc1Cl)C(=O)c1ccc(=O)[nH]n1	> 50.1	Percent Effect [7]: -14.07%
CC(NC(=O)C1=NN(C)C(=O)CC1)c1ccc(Cl)cc1Cl (stereo not given)	> 50.1	Percent Effect [7]: -38.06%
Cn1ncc2c(=O)[nH]c(CN3CCCC3c3cccs3)nc21 (stereo not given)	> 50.1	
CS(=O)(=O)c1ccc(CNC(=O)N2CCC(C(N)=O)C2)cc1 (stereo not given)	> 50.1	
CN(Cc1cccs1)C1CCC[C@@H]2CN(C(=O)c3cccn3C)C[C@H]12 (stereo not given in full)	> 50.1	
COc1ccccc1CNc1ccc2nncn2n1	> 50.1	
COc1ccc(C(=O)N2CCO[C@H]3[C@@H](OCC4CC4)CC[C@@H]32)cc1F	> 50.1	
CN(C)C(=O)N1C[C@@H]2CC[C@H](C1)N(C/C=C/c1ccc(F)cc1)C2	> 50.1	
Cc1nc(N(C)CCCc2nccn2C)c2c(C)nn(C)c2n1	> 50.1	
O=C(NCc1csc(Br)c1)c1cnccn1	> 50.1	
Cc1ccc(C2(O)CCN(Cc3nc(C)n4ccccc34)CC2)nc1	> 50.1	
CCc1nnsc1C(=O)N1CCCN(Cc2ccccc2)CC1	> 50.1	
O=C(c1c[nH]nn1)N1CCCC1C1CCCCC1 (stereo not given)	42.3	
CCOc1ccc(CC(CNC(=O)c2ccoc2C)C(N)=O)cc1 (stereo not given)	> 50.1	
CSC(C)C(=O)NCc1ccc(-n2cncn2)nc1 (stereo not given)	> 50.1	
Cc1nnc(NCCC(=O)N(C)Cc2ccccc2)c(C#N)c1C	> 50.1	

SMILES	IC50 [1] [µM]	also measured
COc1c(C)cnc(CN(C)C(=O)c2cccnc2N(C)C)c1C	> 50.1	
COCCOc1ccccc1C(=O)N(C)Cc1ncc(C)c(OC)c1C	> 50.1	
Cc1nnc(NC(=O)CN2CCOC(Cn3cccn3)C2)s1 (stereo not given)	> 50.1	
CC(C)C1CN(C(=O)c2cc(=O)[nH]c(=O)[nH]2)CCCN1CC1CC1 (stereo not given)	> 50.1	
COC(=O)c1ccc2ccn(CC3COCCO3)c(=O)c2c1 (stereo not given)	> 50.1	
c1ncc2c(n1)CN(CC1CCCCO1)CC2 (stereo not given)	32.7	
O=S(=O)(NC1CCC12CCN(CC1CCOCC1)CC2)c1ccccc1 (stereo not given)	> 50.1	
CCCC(=O)N1CCCCC1C(=O)Nc1ccc(-c2nnc[nH]2)cc1 (stereo not given)	> 50.1	
CCCS(=O)(=O)N1CCOC2(COCCN(C(C)=O)C2)C1 (stereo not given)	> 50.1	
CN1CC(c2ccccc2)CC12CCN(C(=O)c1cccnc1)CC2 (stereo not given)	> 50.1	
CCCn1ccnc1CN1CCC(Oc2ccc(Cl)cc2)(C(=O)O)CC1	> 50.1	
CN(C)c1cc2c(nn1)CCN(C(=O)C1Cc3ccccc3S1)C2 (stereo not given)	> 50.1	
Cn1cnnc1C1CCCN(C(=O)c2ccc3c(c2)OCCO3)C1 (stereo not given)	> 50.1	
CC(C)c1nccn1C1CCCN(C(=O)c2cccc3[nH]ncc23)C1 (stereo not given)	> 50.1	
COCC1CN(C(=O)Cc2ccccn2)Cc2ncn(C)c21 (stereo not given)	> 50.1	
Cc1cc2ccccc2n1CCC(=O)N1CCC[C@H]1C(N)=O	> 50.1	
CCN1CCC(N2CCN(c3cc(-c4nc(C)no4)ccn3)CC2)CC1	> 50.1	
FC(F)(F)CCc1ccnc(NC2CCOC2)n1 (stereo not given)	> 50.1	
CSc1cccc(CN(C)C(=O)Nc2nc(C)n(C)n2)c1	> 50.1	
O=C(COCCc1ccccc1)N1CCCC(n2cccn2)C1 (stereo not given)	> 50.1	
O=c1[nH]c2c(c(=O)n1C1CCCCC1)CCC2NCCc1ccccc1 (stereo not given)	1.75	
Cc1ccc(CN2C[C@@H]3CN(CC4CCOCC4)CCO[C@@H]3C2)s1	> 50.1	

SMILES	IC50 [1] [µM]	also measured
O=C(CCNC(=O)c1ccoc1)Nc1cc(F)cc(F)c1	> 50.1	
CN(C)CCNC(=O)c1ccc(S(=O)(=O)N[C@@H]2CCNC2)cc1	> 50.1	
COc1cc(OC)nc(N2CCC3(CC2)OCCCC3O)n1 (stereo not given)	> 50.1	
Cn1c(=O)c2c(n3ncnc13)NC(=O)CC2c1ccc(F)cc1 (stereo not given)	> 50.1	
COc1cccc(COCC(=O)N2CCCC(n3cccn3)C2)c1 (stereo not given)	> 50.1	
Cc1nc[nH]c1CN1CCn2nc(CN3CC[C@H](F)C3)cc2C1	> 50.1	
Cc1ccc([C@@H]2CN(C(=O)c3cc(C)no3)C[C@H]2NC(=O)C2CC2)cc1	> 50.1	
c1ccc(SCCN2CCCC(Cn3ccnc3)C2)cc1 (stereo not given)	> 50.1	
CC(C)CN1C(=O)C2(CCCC2)NC1c1cn(C)c(=O)n(C)c1=O (stereo not given)	> 50.1	
Cc1csc(CNC(=O)N(C)Cc2ccc3c(c2)OCCO3)n1	> 50.1	
COCCCN1CCCC12CCN(Cc1cccnc1OC)CC2	> 50.1	
CC(Nc1ccn(Cc2ccccn2)n1)C(=O)NC(C)(C)C (stereo not given)	> 50.1	
CN(C)CCn1ccnc1C1CCN(c2cc(N)nc(N)n2)CC1	> 50.1	
COc1c(C)cnc(CN(C)C(=O)c2ccccc2F)c1C	> 50.1	
CCN(Cc1cccc(F)c1)c1ccc2nnnn2n1	> 50.1	
O=c1[nH]c2c(c(=O)n1C1CCCCC1)CCC2Nc1ccccc1 (stereo not given)	> 50.1	
Cc1cccc(NC2CCc3c2[nH]c(=O)n(C2CCCCC2)c3=O)c1C (stereo not given)	2.45	
COc1ccc(CC(=O)N2CCCC(c3nncn3C)C2)cc1 (stereo not given)	> 50.1	
Cc1cnc(N2CCN(C)c3ncccc3C2)nc1	> 50.1	
Cc1nnc(N2CCC(CCN(C)C)CC2)c(C#N)c1C	> 50.1	
CC(C)SCCn1ccc2[nH]c(=O)c(C#N)cc2c1=O	> 50.1	
COCCC(=O)N1CCC2(CC1)CC(c1ccccc1)CN(C1CC1)C2 (stereo not given)	> 50.1	

SMILES	IC50 [1] [µM]	also measured
Cc1nc(CN2CCCC(CCc3ccccc3C(F)(F)F)C2)co1 (stereo not given)	> 50.1	
O=C(O)c1cc(-c2cc[nH]n2)cc(S(=O)(=O)N2CCCCCC2)c1	> 50.1	
COCCOc1ccc(NC(=O)N2CCCC2c2cccs2)cn1 (stereo not given)	> 50.1	
O=C(c1ccc2c(c1)CCCC2)N1CCCC(n2cncn2)C1 (stereo not given)	> 50.1	
O=C(Nc1cccnc1)[C@H]1C[C@@H]2CCN(c3nncs3)C[C@H]2O1	> 50.1	
CCOCC1CN(C(=O)c2cnoc2C)Cc2cn(CC3CC3)nc21 (stereo not given)	> 50.1	
Cc1cc(C)c2c(NCC3(O)CCCCC3)ncnc2n1	> 50.1	
Cc1cc(CN(C)C(=O)c2cccc(N3CCCC3=O)c2)no1	> 50.1	
Cn1cc(NC(=O)c2ccccn2)cc(Br)c1=O	> 50.1	
Cc1ccc(C)c2c(O)cc(CN[C@H]3CCCCNC3=O)nc12	> 50.1	
O=C(NCc1cccs1)NCC(O)(c1cccs1)C1CC1 (stereo not given)	> 50.1	
CSc1ncnc(NCc2cccs2)c1C#N	> 50.1	
O=C(NCC1(O)CCSCC1)c1ccoc1	> 50.1	
O=C(NCC1(O)CCCC1)c1ccc2nsnc2c1	> 50.1	
O=C(c1cnc(-c2cccs2)s1)N1CCCC(n2cccn2)C1 (stereo not given)	> 50.1	
O=C(Cc1ccc(Cl)s1)Nc1ccc2c(c1)C(=O)NC2=O	> 50.1	
CCc1nc(CN2CCOC(CN(CC)c3cccnn3)C2)cs1 (stereo not given)	> 50.1	
FC(F)(F)c1ccc(CN2CCN(Cc3cscn3)CC2)cc1	> 50.1	
COc1ccc(OC)c(C(=O)N(C)Cc2ncc(C)c(OC)c2C)c1	> 50.1	
Cc1cccc2c1nc(CCO)n2-c1ccc(N)nc1	> 50.1	
CN1C(=O)CC2(CCN(S(=O)(=O)C3CC3)CC2)c2ccccc21	> 50.1	
COc1cc(CNCCn2ccnc2)cc2c1OCO2	> 50.1	

SMILES	IC50 [1] [µM]	also measured
c1cc(-c2cn[nH]c2)ncc1CN1CCCCC1	> 50.1	
Cc1nc(NC(C)C)nc2c1CN(Cc1nccn1C)CC2	> 50.1	
Cc1cc(C)n(C2CN(c3ncnc4[nH]ccc34)C2)n1	> 50.1	
Cc1cc(NC(=O)CCCn2ccnc2C)nc(C(C)C)n1	> 50.1	
c1ccc(CCN2CCCC(Cn3ccnc3)C2)cc1 (stereo not given)	> 50.1	
CCC(Cn1ccc2[nH]c(=O)c(C#N)cc2c1=O)OC (stereo not given)	> 50.1	IC50 [2]: > 100 µM
CC(O)(CNc1ccc(Cl)c(C#N)n1)c1ccsc1 (stereo not given)	44	
COc1c(F)cc(-c2cn(CCn3c(C)cc(C)nc3=O)nn2)cc1Cl	> 50.1	
Cc1noc(C2CCCN(C(=O)c3cc(Cl)ccc3F)C2)n1 (stereo not given)	> 50.1	
CC(C)C(=O)NC1CCN(c2cccc(OC(F)(F)F)c2)C1=O (stereo not given)	> 50.1	
Cc1ccc(C(=O)NCc2cc(F)ccc2N2CCCN(C)CC2)o1	> 50.1	
O=C([C@H]1CCCO1)N1CCc2ncnc(NC3CC3)c2CC1	> 50.1	
O=C(c1nc(=O)[nH][nH]1)N1CCC2(CCCCC2)C1	> 50.1	
COc1nccnc1N1CCC2(CC1)[C@H](O)C[C@@H]2OCCN(C)C	> 50.1	
CCCc1ccc(CN2CCN(C(=O)CC(C)C)[C@@H]3CS(=O)(=O)C[C@@H]32)o1	> 50.1	
Cc1cnn(CCCN2C(=O)CCc3ccccc32)c1	> 50.1	
COc1cccc(C(=O)N(C)Cc2ncc(C)c(OC)c2C)c1OC	> 50.1	
CCc1n[nH]c(C2CN(Cc3nc(C4CC4)no3)CCO2)n1 (stereo not given)	> 50.1	
Cc1ncc(CN2CCOC(CN(C)c3cccnn3)C2)s1 (stereo not given)	> 50.1	
Cc1nnc(NCCC(=O)NCc2ccccc2)c(C#N)c1C	> 50.1	
